Experimental data published in ChEMBL document CHEMBL1201862, “PubChem BioAssay data set” (2004).
One block for each molecule: values may come before it. Activity calls are given as the source filed them.

Legend:
cells [1] = type: functional, cell-based
cells [2] = type: functional, cell-based; remark: listed apart in the source
Aminopeptidase N = target: T1, Aminopeptidase N (Plasmodium falciparum FcB1/Columbia, UniProt O96935); assay: P. falciparum M1AAP inhibitors, biochemical, fluorogenic H-Leu-NHMec substrate, 1536-well (AID 1445); parameters: species or system Plasmodium falciparum 3D7, 3D7
T1 sequence (O96935 whole entry): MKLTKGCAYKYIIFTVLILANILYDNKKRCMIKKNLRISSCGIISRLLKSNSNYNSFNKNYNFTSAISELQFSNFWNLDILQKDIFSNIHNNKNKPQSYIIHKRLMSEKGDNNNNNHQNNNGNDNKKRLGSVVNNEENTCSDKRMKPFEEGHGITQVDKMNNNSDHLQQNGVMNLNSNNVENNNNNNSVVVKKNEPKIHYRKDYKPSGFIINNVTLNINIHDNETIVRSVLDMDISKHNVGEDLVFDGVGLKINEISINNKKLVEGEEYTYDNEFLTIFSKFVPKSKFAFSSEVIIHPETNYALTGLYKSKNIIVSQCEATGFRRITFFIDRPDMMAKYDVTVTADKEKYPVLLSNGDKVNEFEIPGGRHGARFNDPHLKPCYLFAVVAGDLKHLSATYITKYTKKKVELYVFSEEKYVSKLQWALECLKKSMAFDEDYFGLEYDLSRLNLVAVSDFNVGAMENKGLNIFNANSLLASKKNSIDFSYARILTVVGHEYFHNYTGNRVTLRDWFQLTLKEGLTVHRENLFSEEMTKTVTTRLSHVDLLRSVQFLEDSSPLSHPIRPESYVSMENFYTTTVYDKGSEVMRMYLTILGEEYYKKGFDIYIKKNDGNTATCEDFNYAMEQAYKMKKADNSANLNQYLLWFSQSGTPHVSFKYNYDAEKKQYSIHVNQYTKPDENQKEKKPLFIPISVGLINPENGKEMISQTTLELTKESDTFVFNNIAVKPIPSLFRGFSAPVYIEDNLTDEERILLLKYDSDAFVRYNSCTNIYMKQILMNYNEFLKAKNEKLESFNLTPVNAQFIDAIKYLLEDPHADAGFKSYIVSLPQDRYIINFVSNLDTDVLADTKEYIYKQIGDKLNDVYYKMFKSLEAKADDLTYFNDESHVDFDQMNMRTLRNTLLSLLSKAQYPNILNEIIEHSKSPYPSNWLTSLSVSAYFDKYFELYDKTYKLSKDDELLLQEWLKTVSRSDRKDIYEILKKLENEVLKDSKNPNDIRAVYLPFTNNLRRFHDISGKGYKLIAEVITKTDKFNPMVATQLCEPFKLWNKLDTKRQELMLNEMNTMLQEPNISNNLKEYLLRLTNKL

INS1 = assay: beta cell apoptosis inhibitors, cytokine rescue, dose response, luminescence, retest (AID 449756); type: functional, cell-based; settings: Rattus norvegicus;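 note: cell death triggered by IL-1 beta plus TNF-alpha plus IFN-gamma mixture; protective hits raise ATP signal compared with cytokine alone wells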
[3] = target: Glucose-6-phosphate 1-dehydrogenase (Homo sapiens, UniProt P11413); assay: human G6PD enzyme inhibitors, dose response, selectivity assay for P. falciparum G6PD inhibitor project, biochemical, fluorescence (AID 504792); type: functional
Chain of Glucose-6-phosphate 1-dehydrogenase (P11413 whole entry): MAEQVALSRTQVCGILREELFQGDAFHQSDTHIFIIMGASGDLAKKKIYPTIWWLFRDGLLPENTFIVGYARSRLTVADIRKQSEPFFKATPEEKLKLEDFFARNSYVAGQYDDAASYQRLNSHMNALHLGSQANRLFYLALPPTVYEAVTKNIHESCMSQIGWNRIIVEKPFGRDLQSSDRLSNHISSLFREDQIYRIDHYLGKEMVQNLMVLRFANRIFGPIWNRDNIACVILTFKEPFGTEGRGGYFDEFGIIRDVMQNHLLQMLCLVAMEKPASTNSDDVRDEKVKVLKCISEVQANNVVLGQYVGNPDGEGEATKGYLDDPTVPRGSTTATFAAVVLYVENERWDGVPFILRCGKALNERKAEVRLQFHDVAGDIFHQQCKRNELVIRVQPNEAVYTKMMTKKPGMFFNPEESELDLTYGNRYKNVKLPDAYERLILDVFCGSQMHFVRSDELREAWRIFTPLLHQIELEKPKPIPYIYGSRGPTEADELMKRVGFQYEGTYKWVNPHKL

[4] = target: T2, Short transient receptor potential channel 4 (Mus musculus, UniProt Q9QUQ5); assay: mouse TRPC4 channel activators, dose response, cell-based, HEK293 TRPC4/mu-opioid, Fluo-4 calcium (AID 434937); type: functional
T2 sequence (Q9QUQ5 whole entry): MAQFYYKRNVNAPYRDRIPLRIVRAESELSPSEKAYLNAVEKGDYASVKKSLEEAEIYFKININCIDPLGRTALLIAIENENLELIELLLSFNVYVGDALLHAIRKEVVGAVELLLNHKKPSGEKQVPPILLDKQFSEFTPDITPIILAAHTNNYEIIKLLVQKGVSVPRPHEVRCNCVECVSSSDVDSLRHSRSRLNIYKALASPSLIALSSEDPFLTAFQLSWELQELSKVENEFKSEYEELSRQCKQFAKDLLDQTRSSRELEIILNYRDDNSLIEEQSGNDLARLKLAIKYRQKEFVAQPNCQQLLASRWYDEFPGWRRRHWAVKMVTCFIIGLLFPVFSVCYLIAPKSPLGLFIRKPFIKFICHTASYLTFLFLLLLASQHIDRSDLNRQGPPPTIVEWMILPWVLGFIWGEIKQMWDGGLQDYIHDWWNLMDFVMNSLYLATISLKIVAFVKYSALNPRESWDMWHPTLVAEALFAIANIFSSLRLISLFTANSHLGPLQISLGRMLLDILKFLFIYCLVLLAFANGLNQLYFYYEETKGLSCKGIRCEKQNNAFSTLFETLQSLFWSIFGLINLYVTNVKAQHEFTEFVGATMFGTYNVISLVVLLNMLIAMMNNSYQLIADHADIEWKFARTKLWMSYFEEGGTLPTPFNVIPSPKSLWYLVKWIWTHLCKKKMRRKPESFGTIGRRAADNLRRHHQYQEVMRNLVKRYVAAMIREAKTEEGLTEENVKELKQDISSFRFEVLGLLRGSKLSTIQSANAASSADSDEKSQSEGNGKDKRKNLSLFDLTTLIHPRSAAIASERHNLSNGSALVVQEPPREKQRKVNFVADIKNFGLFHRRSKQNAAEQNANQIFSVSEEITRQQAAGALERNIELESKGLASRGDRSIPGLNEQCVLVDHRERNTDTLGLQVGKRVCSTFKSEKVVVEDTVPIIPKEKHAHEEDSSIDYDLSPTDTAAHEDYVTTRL

Bcl-2-like protein 10 = target: T3, Bcl-2-like protein 10 (Homo sapiens, UniProt Q9HD36); assay: displacers of TR3 peptide from Bcl-B, primary screen, selectivity assay for Bfl-1 inhibitor project, biochemical, fluorescence polarization, FITC-TR3 peptide (AID 748);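 note: fluorescence polarization from a fluorescein-labelled TR3 peptide binding purified Bcl-B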
T3 sequence (Q9HD36 whole entry): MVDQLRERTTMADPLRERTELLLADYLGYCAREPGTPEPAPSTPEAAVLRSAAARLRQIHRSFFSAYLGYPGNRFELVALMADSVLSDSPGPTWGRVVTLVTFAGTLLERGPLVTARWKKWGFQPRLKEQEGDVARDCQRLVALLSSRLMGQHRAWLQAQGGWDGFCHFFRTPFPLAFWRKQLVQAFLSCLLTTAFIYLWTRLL

Cytochrome P450 2C9 = Cytochrome P450 2C9 (Homo sapiens, UniProt P11712)
Chain of Cytochrome P450 2C9 (P11712 whole entry): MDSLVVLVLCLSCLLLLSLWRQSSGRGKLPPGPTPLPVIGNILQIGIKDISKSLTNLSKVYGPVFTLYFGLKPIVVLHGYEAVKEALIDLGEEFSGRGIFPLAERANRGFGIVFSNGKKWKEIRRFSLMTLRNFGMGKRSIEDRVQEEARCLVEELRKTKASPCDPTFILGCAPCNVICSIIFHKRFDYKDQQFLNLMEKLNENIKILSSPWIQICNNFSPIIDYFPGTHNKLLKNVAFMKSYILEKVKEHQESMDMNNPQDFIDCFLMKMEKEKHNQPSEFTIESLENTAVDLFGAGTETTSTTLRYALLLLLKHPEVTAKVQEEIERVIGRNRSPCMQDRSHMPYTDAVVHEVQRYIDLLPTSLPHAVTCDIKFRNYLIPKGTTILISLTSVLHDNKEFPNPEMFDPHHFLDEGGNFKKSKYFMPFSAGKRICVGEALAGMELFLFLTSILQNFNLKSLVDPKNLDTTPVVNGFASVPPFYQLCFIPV

[5] = target: T2, Short transient receptor potential channel 4; assay: mouse TRPC4 channel inhibitors, dose response, cell-based, HEK293 TRPC4/mu-opioid, Fluo-4 calcium (AID 434942); type: functional;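 note: potency of inhibitors blocking the TRPC4 calcium response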
Cytochrome P450 2C19 = Cytochrome P450 2C19 (Homo sapiens, UniProt P33261); assay: Cytochrome panel assay with activity outcomes. Panel member name: p450-cyp2c19 Compounds with AC50 equal or less than 10 uM are considered active; type: functional; settings: read-out: AC50
Chain of Cytochrome P450 2C19 (P33261 whole entry): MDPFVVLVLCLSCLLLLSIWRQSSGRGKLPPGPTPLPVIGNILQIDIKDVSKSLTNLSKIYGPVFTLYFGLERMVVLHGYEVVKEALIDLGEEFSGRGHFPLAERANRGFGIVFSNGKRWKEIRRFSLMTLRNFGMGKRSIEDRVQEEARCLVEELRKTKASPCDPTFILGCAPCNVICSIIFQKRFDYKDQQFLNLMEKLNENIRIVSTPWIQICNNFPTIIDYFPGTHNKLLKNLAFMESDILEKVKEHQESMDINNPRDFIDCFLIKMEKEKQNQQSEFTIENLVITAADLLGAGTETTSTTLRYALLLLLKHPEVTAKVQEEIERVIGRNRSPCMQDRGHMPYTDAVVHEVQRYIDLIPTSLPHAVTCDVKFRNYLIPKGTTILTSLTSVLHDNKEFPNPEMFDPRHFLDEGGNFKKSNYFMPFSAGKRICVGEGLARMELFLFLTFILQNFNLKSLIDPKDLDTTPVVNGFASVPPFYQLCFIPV

Cytochrome P450 1A2 = target: T4, Cytochrome P450 1A2 (Homo sapiens, UniProt P05177);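 note: PubChem cytochrome P450 panel assay, CYP1A2 panel member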
T4 sequence (P05177 whole entry): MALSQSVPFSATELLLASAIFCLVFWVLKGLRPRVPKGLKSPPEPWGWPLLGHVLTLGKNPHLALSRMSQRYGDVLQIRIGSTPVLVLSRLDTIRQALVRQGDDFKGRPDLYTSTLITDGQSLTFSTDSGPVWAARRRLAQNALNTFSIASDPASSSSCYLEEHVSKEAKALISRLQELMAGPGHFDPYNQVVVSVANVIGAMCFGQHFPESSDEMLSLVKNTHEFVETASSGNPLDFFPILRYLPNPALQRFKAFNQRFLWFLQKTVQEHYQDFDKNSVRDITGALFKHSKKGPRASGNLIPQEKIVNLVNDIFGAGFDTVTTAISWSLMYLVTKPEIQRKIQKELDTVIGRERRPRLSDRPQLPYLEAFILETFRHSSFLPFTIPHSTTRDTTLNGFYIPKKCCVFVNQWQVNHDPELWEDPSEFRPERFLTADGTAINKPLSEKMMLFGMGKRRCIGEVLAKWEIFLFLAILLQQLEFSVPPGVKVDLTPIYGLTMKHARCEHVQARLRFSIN

Cytochrome P450 3A4 = Cytochrome P450 3A4 (Homo sapiens, UniProt P08684);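 note: CYP3A4 tested as one member of a cytochrome P450 panel screen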
Chain of Cytochrome P450 3A4 (P08684 whole entry): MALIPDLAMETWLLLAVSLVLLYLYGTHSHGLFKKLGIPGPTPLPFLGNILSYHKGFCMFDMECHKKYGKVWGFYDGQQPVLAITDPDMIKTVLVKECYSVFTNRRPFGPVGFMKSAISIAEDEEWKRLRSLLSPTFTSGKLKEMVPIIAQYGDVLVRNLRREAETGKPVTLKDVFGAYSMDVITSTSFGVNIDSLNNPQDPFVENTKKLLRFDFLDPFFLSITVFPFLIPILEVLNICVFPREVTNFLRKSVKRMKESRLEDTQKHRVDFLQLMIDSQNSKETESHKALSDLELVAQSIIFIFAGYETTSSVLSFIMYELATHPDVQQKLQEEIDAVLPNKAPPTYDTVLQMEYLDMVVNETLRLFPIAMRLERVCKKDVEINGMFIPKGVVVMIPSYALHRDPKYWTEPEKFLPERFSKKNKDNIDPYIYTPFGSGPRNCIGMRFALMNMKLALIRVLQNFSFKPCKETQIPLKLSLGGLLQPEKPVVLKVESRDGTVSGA

[6] = C. albicans growth with fluconazole, confirmation, fluorescence, retest (AID 2467); type: functional, cell-based
[7] = NIH-3T3 fibroblast cytotoxicity, dose response, cytotoxicity control, cell-based, fluorescence, Alamar Blue, secondary assay (AID 2327); type: functional;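 note: NIH-3T3 mouse fibroblasts cultured with fluconazole at 8 µg/mL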
[8] = target: T5, Histone-lysine N-methyltransferase NSD2 (Homo sapiens, UniProt O96028); type: biochemical
T5 sequence (O96028 whole entry): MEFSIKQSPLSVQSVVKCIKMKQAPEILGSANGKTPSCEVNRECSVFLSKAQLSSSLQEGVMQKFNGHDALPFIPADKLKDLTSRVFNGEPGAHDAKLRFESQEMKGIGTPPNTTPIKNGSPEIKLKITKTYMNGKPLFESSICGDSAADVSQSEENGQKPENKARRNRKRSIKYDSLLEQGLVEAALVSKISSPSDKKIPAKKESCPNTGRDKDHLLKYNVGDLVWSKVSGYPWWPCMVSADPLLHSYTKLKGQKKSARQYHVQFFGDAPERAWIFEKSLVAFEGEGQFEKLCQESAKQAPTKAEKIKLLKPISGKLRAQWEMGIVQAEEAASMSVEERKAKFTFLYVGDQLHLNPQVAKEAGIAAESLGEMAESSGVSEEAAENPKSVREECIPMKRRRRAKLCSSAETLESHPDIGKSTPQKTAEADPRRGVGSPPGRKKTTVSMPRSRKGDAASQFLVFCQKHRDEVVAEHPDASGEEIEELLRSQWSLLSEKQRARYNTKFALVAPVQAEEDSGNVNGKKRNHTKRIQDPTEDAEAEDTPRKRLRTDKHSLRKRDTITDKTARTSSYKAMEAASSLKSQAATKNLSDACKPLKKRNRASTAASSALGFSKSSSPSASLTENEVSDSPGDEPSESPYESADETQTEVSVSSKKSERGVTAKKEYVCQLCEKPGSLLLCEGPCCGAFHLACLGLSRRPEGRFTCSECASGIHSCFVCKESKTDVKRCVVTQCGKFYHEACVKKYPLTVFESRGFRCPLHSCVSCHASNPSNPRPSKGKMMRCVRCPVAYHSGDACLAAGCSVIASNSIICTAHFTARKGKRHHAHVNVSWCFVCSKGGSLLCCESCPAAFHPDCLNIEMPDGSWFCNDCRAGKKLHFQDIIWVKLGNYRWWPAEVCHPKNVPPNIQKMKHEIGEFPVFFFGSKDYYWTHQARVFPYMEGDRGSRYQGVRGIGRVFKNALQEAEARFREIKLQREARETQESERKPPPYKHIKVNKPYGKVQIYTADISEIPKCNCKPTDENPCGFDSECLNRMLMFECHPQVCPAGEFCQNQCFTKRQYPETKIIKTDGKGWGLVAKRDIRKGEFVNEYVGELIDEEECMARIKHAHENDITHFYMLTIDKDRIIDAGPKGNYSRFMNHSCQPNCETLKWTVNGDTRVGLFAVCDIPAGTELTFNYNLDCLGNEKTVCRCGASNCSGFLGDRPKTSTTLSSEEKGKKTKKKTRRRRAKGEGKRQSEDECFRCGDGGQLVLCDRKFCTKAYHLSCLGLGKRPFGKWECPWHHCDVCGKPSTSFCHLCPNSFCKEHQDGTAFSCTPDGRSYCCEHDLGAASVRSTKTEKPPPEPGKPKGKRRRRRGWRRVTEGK

SMILES: O=C(N/N=C/c1cc(Cl)ccc1O)c1ccccc1Br
EC50 (cells [1]): 14.7 µM (active) | EC50 (cells [2]): > 350 µM (not active) | IC50 (Aminopeptidase N): 30.8 µM (active) | AC50 (INS1): 2.29 µM (active)

SMILES: O=C(Nc1ccccc1C(=O)N/N=C/c1ccco1)c1ccccc1Cl
IC50 [3]: > 80 µM (inactive)

EC50 [4]: 5.31 µM (active)
SMILES: OCCC1CN(Cc2ccccc2-c2ccco2)CCN1Cc1ccccc1 (stereo not given)

IC50 (Bcl-2-like protein 10): 62.8 µM (inactive)
SMILES: O=C(NCCCN1CCN(Cc2ccccc2)CC1)C1CCN(c2nnc(-n3cccc3)s2)CC1

EC50 [4]: 1.19 µM (active)
SMILES: Cc1cccc(OCCOCCN2CCNCC2)c1C

AC50 (Cytochrome P450 2C9): inconclusive
SMILES: O=C(Nc1ccccc1)N1CC2(CCN(C(=O)c3cc(C(F)(F)F)cc(C(F)(F)F)c3)CC2)C1

EC50 [4]: 2.66 µM (active) | EC50 [5]: 841 nM (active)
SMILES: CCOC(=O)C1(CC2CC2)CCN(Cc2ccc3cccc(F)c3n2)CC1

SMILES: CC1=CN2C(=N)/C(=C/c3cc(Cl)c(O)c(Cl)c3)C(=O)N=C2S1
IC50 (Aminopeptidase N): 42 µM (active)

SMILES: O=C(CSc1nc2cc(Cl)ccc2s1)c1ccco1
IC50 [3]: > 80 µM (inactive)

AC50 (Cytochrome P450 2C19): 3.98 µM (inconclusive) | AC50 (Cytochrome P450 2C9): inconclusive
SMILES: C[C@H]1CC[C@H]2C(=O)N[C@H](Cc3ccccc3)C(=O)N2[C@@H]1c1ccccc1

AC50 (Cytochrome P450 2C19): 3.98 µM (inconclusive) | AC50 (Cytochrome P450 1A2): 17.8 µM (inconclusive) | AC50 (Cytochrome P450 2C9): inconclusive
SMILES: O=C(N/C(=C/c1ccco1)C(=O)N1CCCCCC1)c1cccs1

IC50 (Bcl-2-like protein 10): 76.3 µM (inactive)
SMILES: FC(F)(F)c1cnc(Nc2ccc(N3CCOCC3)cc2)c(Cl)c1

IC50 [3]: > 80 µM (inactive)
SMILES: Cc1ccc(C(=O)Nc2nnc(S(=O)(=O)N3CCC(C)CC3)s2)cc1

IC50 (Bcl-2-like protein 10): 77 µM (inactive)
SMILES: O=C(O)CCc1ccc(-c2cccs2)n1CCC(=O)O

IC50 (Bcl-2-like protein 10): > 100 µM (inactive)
SMILES: COc1ccc(S(=O)(=O)N2CCCC2C(=O)Nc2nnc(-c3cccnc3)s2)cc1 (stereo not given)

AC50 (Cytochrome P450 2C9): inconclusive
SMILES: Cn1c(=O)c2cc(S(=O)(=O)NCCC(=O)Nc3ccc(Cl)cc3)ccc2n(C)c1=O

AC50 (Cytochrome P450 3A4): 22.4 µM (inconclusive) | AC50 (Cytochrome P450 2C9): inconclusive
SMILES: Oc1ccc2oc3c(c2c1)CCCC3

SMILES: Cc1ccc(S(=O)(=O)NC2=NC(=O)/C(=C\c3cc(Br)cc(Br)c3O)S2)cc1
EC50 [6]: > 38 µM (not active) | EC50 [7]: 9.99 µM (active) | EC50 [4]: 10.6 µM (active) | AC50 [8]: 6.67 µM (active)

EC50 [4]: 4.22 µM (active)
SMILES: Cc1cc(NC(=O)c2cnn3cccnc23)nn1CC(=O)Nc1cccnc1
